Patent publication US12049450B2, “Pyridyloxy-carboxylate derivative and preparation method therefor, herbicidal composition, and use” (Qingdao Kingagroot Chemical Compound Co., Ltd., priority 2018, dated 2024)

Legend:
Experiment in all cases: Post-emergence test experiment (greenhouse pot, spray at 2-3 leaf stage)
Format in all cases: in vivo
Details in all cases: 1000 g/ha; post-emergence spray at 2-3 leaf stage; assessed after 3 weeks; fresh weight inhibition rate
Abutilon theophrasti = test system: Abutilon theophrasti
How it was run: (§1)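 Weed seeds sown in soil-filled pots in greenhouse, sprayed at 2-3 leaf stage (2 weeks after sowing) with compound in acetone/tween-80 plus methyl oleate emulsible concentrate (1.5 L/ha) diluted in water. Fresh-weight growth inhibition scored after 3 weeks on 0-5 scale (5: >85%, 0: <5%).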

Digitaria sanguinalis = test system: Digitaria sanguinalis
How it was run: as §1

Echinochloa crusgalli = test system: Echinochloa crusgalli
How it was run: as §1

Galium spurium = test system: Galium spurium
How it was run: as §1

Monochoria vaginalis = test system: Monochoria vaginalis
How it was run: as §1

| Compound | Activity level (growth inhibition rate) Abutilon theophrasti (Abutilon theophrasti) | Activity level (growth inhibition rate) Digitaria sanguinalis (Digitaria sanguinalis) | Activity level (growth inhibition rate) Echinochloa crusgalli (Echinochloa crusgalli) | Activity level (growth inhibition rate) Galium spurium (Galium spurium) | Activity level (growth inhibition rate) Monochoria Vaginalis (Monochoria vaginalis) |
| --- | --- | --- | --- | --- | --- |
| CC(Oc1ncc(Cl)c(N)c1Cl)C(=O)SCc1ccccc1 (stereo not shown) [Compound 23] | 5 (Level 5: the growth inhibition rate is greater than 85%) | 5 (Level 5: the growth inhibition rate is greater than 85%) | 5 (Level 5: the growth inhibition rate is greater than 85%) | 5 (Level 5: the growth inhibition rate is greater than 85%) | 5 (Level 5: the growth inhibition rate is greater than 85%) |
| CC(Oc1nc(F)c(Cl)c(N)c1Cl)C(=O)OCc1ccncc1 (racemic) [Compound 117] | 5 (Level 5: the growth inhibition rate is greater than 85%) | 5 (Level 5: the growth inhibition rate is greater than 85%) | 5 (Level 5: the growth inhibition rate is greater than 85%) | 5 (Level 5: the growth inhibition rate is greater than 85%) | 5 (Level 5: the growth inhibition rate is greater than 85%) |
| CC(Oc1nc(F)c(Cl)c(N)c1Cl)C(=O)SCc1ccc(F)cc1 (stereo not shown) [Compound 223] | 5 (Level 5: the growth inhibition rate is greater than 85%) | 5 (Level 5: the growth inhibition rate is greater than 85%) | 5 (Level 5: the growth inhibition rate is greater than 85%) | 5 (Level 5: the growth inhibition rate is greater than 85%) | 5 (Level 5: the growth inhibition rate is greater than 85%) |
| CC(Oc1nc(F)c(Cl)c(N)c1Cl)C(=O)SCCc1cocn1 (stereo not shown) [Compound 142] | 5 (Level 5: the growth inhibition rate is greater than 85%) | 5 (Level 5: the growth inhibition rate is greater than 85%) | 5 (Level 5: the growth inhibition rate is greater than 85%) | 5 (Level 5: the growth inhibition rate is greater than 85%) | 5 (Level 5: the growth inhibition rate is greater than 85%) |
| CC(Oc1nc(F)c(Cl)c(N)c1Cl)C(=O)OCCc1cnn[nH]1 (stereo not shown) [Compound 135] | 5 (Level 5: the growth inhibition rate is greater than 85%) | 5 (Level 5: the growth inhibition rate is greater than 85%) | 5 (Level 5: the growth inhibition rate is greater than 85%) | 5 (Level 5: the growth inhibition rate is greater than 85%) | 5 (Level 5: the growth inhibition rate is greater than 85%) |
| Cc1cc(CSC(=O)C(C)Oc2nc(F)c(Cl)c(N)c2Cl)ccn1 (racemic) [Compound 118] | 5 (Level 5: the growth inhibition rate is greater than 85%) | 5 (Level 5: the growth inhibition rate is greater than 85%) | 5 (Level 5: the growth inhibition rate is greater than 85%) | 5 (Level 5: the growth inhibition rate is greater than 85%) | 5 (Level 5: the growth inhibition rate is greater than 85%) |
| CC(Oc1ncc(Cl)c(N)c1C(F)(F)F)C(=O)OCc1ccccc1 (stereo not shown) [Compound 16] | 5 (Level 5: the growth inhibition rate is greater than 85%) | 5 (Level 5: the growth inhibition rate is greater than 85%) | 5 (Level 5: the growth inhibition rate is greater than 85%) | 5 (Level 5: the growth inhibition rate is greater than 85%) | 5 (Level 5: the growth inhibition rate is greater than 85%) |
| CC(Oc1nc(F)c(Cl)c(N)c1Cl)C(=O)OCCc1cccc2cnncc12 (stereo not shown) [Compound 187] | 5 (Level 5: the growth inhibition rate is greater than 85%) | 5 (Level 5: the growth inhibition rate is greater than 85%) | 5 (Level 5: the growth inhibition rate is greater than 85%) | 5 (Level 5: the growth inhibition rate is greater than 85%) | 5 (Level 5: the growth inhibition rate is greater than 85%) |
| CC(Oc1nc(F)c(Cl)c(N)c1Cl)C(=O)OCc1ccccc1C#N (stereo not shown) [Compound 200] | 5 (Level 5: the growth inhibition rate is greater than 85%) | 5 (Level 5: the growth inhibition rate is greater than 85%) | 5 (Level 5: the growth inhibition rate is greater than 85%) | 5 (Level 5: the growth inhibition rate is greater than 85%) | 5 (Level 5: the growth inhibition rate is greater than 85%) |
| CC(Oc1nc(F)c(Cl)c(N)c1Cl)C(=O)SCCc1ncsn1 (stereo not shown) [Compound 165] | 5 (Level 5: the growth inhibition rate is greater than 85%) | 5 (Level 5: the growth inhibition rate is greater than 85%) | 5 (Level 5: the growth inhibition rate is greater than 85%) | 5 (Level 5: the growth inhibition rate is greater than 85%) | 5 (Level 5: the growth inhibition rate is greater than 85%) |
| CC(Oc1nc(F)c(Cl)c(NCc2ccccc2)c1Cl)C(=O)OCc1ccccc1 (stereo not shown) [Compound 195] | 5 (Level 5: the growth inhibition rate is greater than 85%) | 5 (Level 5: the growth inhibition rate is greater than 85%) | 5 (Level 5: the growth inhibition rate is greater than 85%) | 5 (Level 5: the growth inhibition rate is greater than 85%) | 5 (Level 5: the growth inhibition rate is greater than 85%) |
| CC(Oc1nc(F)c(Cl)c(N)c1Cl)C(=O)OCc1nccn1C (stereo not shown) [Compound 130] | 5 (Level 5: the growth inhibition rate is greater than 85%) | 5 (Level 5: the growth inhibition rate is greater than 85%) | 5 (Level 5: the growth inhibition rate is greater than 85%) | 5 (Level 5: the growth inhibition rate is greater than 85%) | 5 (Level 5: the growth inhibition rate is greater than 85%) |
| CC(Oc1nc(F)c(Cl)c(N)c1Cl)C(=O)OCc1cnoc1 (stereo not shown) [Compound 146] | 5 (Level 5: the growth inhibition rate is greater than 85%) | 5 (Level 5: the growth inhibition rate is greater than 85%) | 5 (Level 5: the growth inhibition rate is greater than 85%) | 5 (Level 5: the growth inhibition rate is greater than 85%) | 5 (Level 5: the growth inhibition rate is greater than 85%) |
| CC(Oc1nc(F)c(Cl)c(N)c1Cl)C(=O)OCC1CCCO1 (stereo not shown) [Compound 68] | 5 (Level 5: the growth inhibition rate is greater than 85%) | 5 (Level 5: the growth inhibition rate is greater than 85%) | 5 (Level 5: the growth inhibition rate is greater than 85%) | 5 (Level 5: the growth inhibition rate is greater than 85%) | 5 (Level 5: the growth inhibition rate is greater than 85%) |
| CC(Oc1nc(F)c(Cl)c(N)c1Cl)C(=O)SCCc1ccncn1 (stereo not shown) [Compound 125] | 5 (Level 5: the growth inhibition rate is greater than 85%) | 5 (Level 5: the growth inhibition rate is greater than 85%) | 5 (Level 5: the growth inhibition rate is greater than 85%) | 5 (Level 5: the growth inhibition rate is greater than 85%) | 5 (Level 5: the growth inhibition rate is greater than 85%) |
| CC(Oc1nc(F)c(Cl)c(N)c1Cl)C(=O)SCc1ccc(C#CCF)cc1 (stereo not shown) [Compound 95] | 5 (Level 5: the growth inhibition rate is greater than 85%) | 5 (Level 5: the growth inhibition rate is greater than 85%) | 5 (Level 5: the growth inhibition rate is greater than 85%) | 5 (Level 5: the growth inhibition rate is greater than 85%) | 5 (Level 5: the growth inhibition rate is greater than 85%) |
| CC(Oc1nc(F)c(Cl)c(N)c1Cl)C(=O)SCc1cncs1 (stereo not shown) [Compound 159] | 5 (Level 5: the growth inhibition rate is greater than 85%) | 5 (Level 5: the growth inhibition rate is greater than 85%) | 5 (Level 5: the growth inhibition rate is greater than 85%) | 5 (Level 5: the growth inhibition rate is greater than 85%) | 5 (Level 5: the growth inhibition rate is greater than 85%) |
